Peptide text beside a SMILES is read from it.
Assays:
[1] = tested on: hypertrophic chondrocyte-produced extracellular matrix (LTBP1 in native conformation); assay: Peptide binding to extracellular matrix of whole cell primary chondrocyte cultures; parameters: species or system avian
Procedure: (§1) Binding assays utilizing intact hypertrophic chondrocyte-produced extracellular matrix, LTBP1 immunoprecipitates of hypertrophic chondrocyte-produced extracellular matrix and recombinant protein of the calcium-binding, EGF-like domains of LTBP1 (30) were performed as described in Materials and Methods. *=p<0.001 compared to scrambled. ***=p<0.001 compared to MMP13-derived peptide by ANOVA with Tukey's analysis. (A) Intact hypertrophic chondrocyte-produced extracellular matrix and MMP13-19 or MMP13-10 peptide binding. (B) 25 μg eluates of hypertrophic cartilage immunoprecipitated with polyclonal antibody to LTBP1 and MMP13-19 peptide binding. (C) 15 ng of recombinant protein of the calcium-binding, EGF-like domains and MMP13-19 or MMP13-10 or MMP13-6 peptide binding.
Sterna were removed from day 17 chick embryos using microsurgical techniques as previously described (D'Angelo et al., J. Bone Miner. Res. 12:1368-1377, 1997). […] The cell suspensions were then filtered through a […] filter, counted, seeded onto Falcon 6-well, tissue culture treated plates and covered with 2 ml of high glucose DMEM containing 10% NuSerum and 50 μg/ml of penicillin/streptomycin, 2 mM of L-glutamine (Invitrogen Life Technologies, Carlsbad, Calif., USA). […]

[2] = tested on: resting cartilage tissue extract (LTBP1-containing TGFβ large latent complex); assay: Peptide binding assay, resting cartilage tissue extract; parameters: species or system avian; conditions: 100 nM fluorescent-labeled peptide
Description: (§2) Cartilage from day 17 avian embryo sterna was extracted with 0.5% CHAPS buffer and binding assays conducted. Scr=scrambled control; +cold=unlabeled competition. *=p<0.001 compared to scrambled. ***=p<0.001 compared to MMP13-derived peptide by ANOVA with Tukey's Analysis. (A) Resting cartilage and MMP13-19 peptide. (B) Hypertrophic cartilage and MMP13-19 peptide. (C) Hypertrophic cartilage and MMP13-10 peptide D. hypertrophic cartilage and MMP13-6 peptide.
(§3) Twenty-five micrograms of total equal protein from cartilage CHAPS extracts or five nanograms recombinant protein of the calcium-like EGF binding domain of LTBP1 (a kind gift of Sarah Dallas) or hypertrophic cartilage from day 17 avian embryo sterna and tibial growth plate cartilage from day 14 newborn rat pups were extracted with 0.5% CHAPS buffer and eluates immunoprecipitated with polyclonal antibody to LTBP1 and then samples were plated onto poly-L-lysine coated 96 well plates. After overnight drying, the protein-coated wells were incubated with 100 nM fluorescent-labeled peptide in Tris buffered saline [150 mM NaCl, 10 mM Tris, pH 8.0] and 20% horse serum for 4 hours at 16° C. After incubation, the wells are washed twice with binding buffer, the protein layer solubilized with 5N NaOH and fluorescence bound measured at 495 nm excitation and 520 nm emission on the LabSystems Fluoroskan Ascent CF plate reader. […]

[3] = tested on: calcium-binding EGF-like domains of LTBP1 (CE-LTBP1); assay: Peptide binding to recombinant calcium-binding EGF-like domains of LTBP1 (CE-LTBP1)
Procedure: as §1, with “(C) 15 ng of recombinant protein of the calcium-binding, EGF-like domains and MMP13-19 or MMP13-10 or MMP13-6 peptide binding.” left out
as §3, with “After overnight drying, the protein-coated wells were incubated with 100 nM fluorescent-labeled peptide in Tris buffered saline [150 mM NaCl, 10 mM Tris, pH 8.0] and 20% horse serum for 4 hours at 16° C.” left out

[4] = tested on: hypertrophic cartilage tissue extract (LTBP1-containing TGFβ large latent complex); assay: Peptide binding assay, hypertrophic cartilage tissue extract; parameters: species or system avian; conditions: 100 nM fluorescent-labeled peptide
Description: as §2, §3

[5] = tested on: MMP; conditions: in vivo; cited from earlier work
[6] = tested on: MMP13; assay: MMP13 enzymatic activity in cartilage extracts with inhibitors; assay type: biochemical, avian
Procedure: Utilizing a standard curve with MMP13 and MMP9 catalytic domains (Enzo, Inc) we quantitated the amount of MMP13 and MMP9 activity in cartilage extracts (Table 4). Cartilage isolated from day 17 avian embryos contain 0.166 units and 0.152 units MMP13 per 40 μg total tissue in early hypertrophic and late hypertrophic tissue, respectively. […] Inclusion of an inhibitor of MMP13 (Calbiochem) reduces the activity in both cartilage populations by 24% and 30% respectively.

[7] = Toxicity in vivo by blood analysis; parameters: species or system rat
Procedure: Cytotoxicity was assessed by Alomar Blue Assay (Invitrogen) on primary chondrocytes and a monocyte cell line incubated for 24 hours with PxTx001-1. Absorbance was recorded at 570 nm for every hour up to 24 hrs to monitor both proliferation and metabolic activity. (FIG. 39). Toxicity in vivo was determined by blood analysis from rats that had been injected with the peptide as described previously. Total cell count, blood components and serum proteins were measured (Table 5).

[8] = tested on: mono-iodoacetate (MIA)-induced osteoarthritis; assay: MIA-induced osteoarthritis, cartilage mineralization (total and bone volume), d14 and d21; assay type: in vivo, rat; parameters: Total Volume / Bone Volume: unit not given here
Procedure: Isolated joints were analyzed by Micro CT to measure cortical bone, trabecular bone and cartilage of the patella, femur and tibia, the production of chondrophytes and tissue mineralization in response to treatment. Total mineralization in the patella, femur and tibial cartilages, as well as subchondral bone, were calculated with Scanco μCT software. Micro-CT was conducted with a Scanco uCT 35 (Scanco Medical, Bassersdorf, Switzerland) system. Scans of 15 μm voxel size, 55 KVp, 0.36 degrees rotation step (180 degrees angular range) and a 600 ms exposure per view produced from joints immersed in phosphate buffered saline.
Animals were treated with MMP13-19 peptide or BMP-7 protein once a week for two (d14) or three (d21) weeks following an injection of mono-iodoacetate (MIA), a chemical agent that induces osteoarthritis pathology measurable at four weeks post injection. The samples that received saline are the positive disease control. 250 nM of MMP13-19 peptide and 50 uM BMP-7 were injected laterally below the patellar ligament. […] But, it is also known that BMP-7 is bone-inducing.

[9] = tested on: MIA-induced OA model; assay: Acute treatment of MIA-induced OA, week 4 micro CT; assay type: in vivo, rat

MMP13-6 peptide: amino acids 37-42 of SEQ ID NO: 1 (VDAELF; listed as Homo sapiens)
binding compared to scrambled peptide [1]: did not bind specifically
binding compared to scrambled peptide control [2]: did not specifically bind
binding of recombinant protein more than scrambled peptide [3]: did not bind specifically
binding compared to scrambled peptide control [4]: did not specifically bind

MMP13-10 peptide: amino acids 17-26 of SEQ ID NO: 1 (LRGETMIFKD; listed as Homo sapiens)
binding compared to scrambled peptide [1]: four-fold
binding compared to scrambled peptide control [2]: less than two-fold
binding of recombinant protein more than scrambled peptide [3]: did not bind specifically
binding compared to scrambled peptide control [4]: less than two-fold

COc1ccc(S(=O)(=O)N(Cc2cccnc2)[C@@H](C(=O)NO)C(C)C)cc1 [CGS-27023A]
side-effects in treatment of OA [5]: severe side-effects known as MMP-induced musculoskeletal syndrome

Cc1cc(CNC(=O)c2cc(C(=O)NCc3ccc(F)c(C)c3)ncn2)ccc1F [MMP13 Inhibitor]
reduction of MMP13 activity ([6]; early hypertrophic tissue): 24%
reduction of MMP13 activity ([6]; late hypertrophic tissue): 30%

CC1(C)SCCN(S(=O)(=O)c2ccc(Oc3ccncc3)cc2)[C@H]1C(=O)NO [prinomastat]
side-effects in treatment of OA [5]: severe side-effects known as MMP-induced musculoskeletal syndrome

CC[C@H](C)[C@H](NC(=O)[C@H](CCCCN)NC(=O)[C@H](CCCCN)NC(=O)[C@@H](NC(=O)[C@H](CCC(=O)O)NC(=O)[C@H](CCCCN)NC(=O)[C@@H]1CCCN1C(=O)[C@H](CC(C)C)NC(=O)CNC(=O)[C@H](CC(C)C)NC(=O)[C@@H](N)CCC(=O)O)C(C)C)C(=O)N[C@@H](CO)C(=O)N[C@@H](C)C(=O)N[C@@H](C)C(=O)N[C@H](C(=O)N[C@@H](Cc1c[nH]cn1)C(=O)N[C@@H](Cc1ccccc1)C(=O)N[C@@H](CCC(=O)O)C(=O)N[C@@H](CC(=O)O)C(=O)O)C(C)C [MMP13-19 peptide] (H-ELGLPKEVKKISAAVHFED-OH)
ALT ([7]; 1 injection): 56 U/L
AST ([7]; 1 injection): 99 U/L
Alk Phos ([7]; 1 injection): 272 U/L
BUN ([7]; 1 injection): 15 mg/dL
Cholesterol ([7]; 1 injection): 74 mg/dL
Creatinine ([7]; 1 injection): 0.4 mg/dL
RBC ([7]; 1 injection): 5.59e+06 µL⁻¹
Total Bilirubin ([7]; 1 injection): 0.3 mg/dL
WBC ([7]; 1 injection): 3600 µL⁻¹
ALT ([7]; 4 injections): 52 U/L
AST ([7]; 4 injections): 95 U/L
Alk Phos ([7]; 4 injections): 194.5 U/L
BUN ([7]; 4 injections): 18 mg/dL
Cholesterol ([7]; 4 injections): 67.5 mg/dL
Creatinine ([7]; 4 injections): 0.3 mg/dL
RBC ([7]; 4 injections): 6.9e+06 µL⁻¹
Total Bilirubin ([7]; 4 injections): 1.1 mg/dL
WBC ([7]; 4 injections): 4550 µL⁻¹
total cell count, blood components and serum proteins (all parameters measured) ([7]; rats injected with the peptide): within normal ranges

B1: BMP-7: BMP-7 protein, positive control, chondroprotective and bone-inducing (protein, UniProt P18075 293-431, looked up)
Bone morphogenetic protein 7: STGSKQRSQNRSKTPKNQEALRMANVAENSSSDQRQACKKHELYVSFRDLGWQDWIIAPEGYAAYYCEGECAFPLNSYMNATNHAIVQTLVHFINPETVPKPCCAPTQLNAISVLYFDDSSNVILKKYRNMVVRACGCH
BV/TV ([8]; Patellar cartilage d14): 0.0626
Bone Volume ([8]; Patellar cartilage d14): 0.419
Total Volume ([8]; Patellar cartilage d14, 250 nM peptide or 50 uM BMP-7 once a week): 6.6967
BV/TV ([8]; Patellar cartilage d21): 0.0192
Bone Volume ([8]; Patellar cartilage d21): 0.2037
Total Volume ([8]; Patellar cartilage d21): 10.7748
BV/TV ([8]; Total Joint Cartilage d14): 0.0435
Bone Volume ([8]; Total Joint Cartilage d14): 1.0643
Total Volume ([8]; Total Joint Cartilage d14): 24.4891
BV/TV ([8]; Total Joint Cartilage d21): 0.0412
Bone Volume ([8]; Total Joint Cartilage d21): 0.9607
Total Volume ([8]; Total Joint Cartilage d21): 23.3101
BV/TV (ratio of bone volume to total volume) ([9]; Femur): 0.2245 +/− 0.066
TbN (trabecular number) ([9]; Femur): 4.200 +/− 0.830
TbN (trabecular number) ([9]; Patella): 6.2122 +/− 0.169
BV/TV (ratio of bone volume to total volume) ([9]; Patella, 250 nM peptide or 500 ng BMP7 weekly infrapatellar): 0.6846 +/− 0.084
BV/TV (ratio of bone volume to total volume) ([9]; Tibia): 0.1757 +/− 0.087
TbN (trabecular number) ([9]; Tibia): 4.9095 +/− 0.719
